Source: patent publication US20080200433A1, “Molecular Chaperone Function Regulator” (priority 2004, published 2008)

Columns and labels:
HSP70 [1] = assay: Induction of HSP70 in T-47D cells (Western blot); assay type: cell-based, human; settings: 10 μM, 9 hr; for HSP70 expression, Experiment 2 (T/C, %): control = 100, Experiment 2; for HSP70 expression, Experiment 1 (T/C, %): control = 100, Experiment 1
Description: (Method) T-47D cells were cultured in a 12-well plate and, at the time point when the cells grew to about 70-80%, compounds A, B, C, D, E and F were each added to 10 μM.
(§1) DMSO (0.1%) was added to the control. After the addition, the cells were collected 9 hr later and cell extracts were prepared. Expression of HSP70 protein in the cell extracts was examined by Western blot using an HSP70 specific antibody. T/C (%) was determined using the amount of chemical luminescence on a PVDF film due to an HRP-labeled secondary antibody as the HSP70 expression amount and HSP70 expression amount of the cells in the control well as 100.

ubiquitinated protein = assay: Induction of ubiquitinated protein in T-47D cells (Western blot); assay type: cell-based, human; settings: vs DMSO control (FIG. 7)
Description: DMSO (0.1%) was added to the control. After the addition, the cells were collected 1, 3, 6 and 24 hr later and cell extracts were prepared. Expression of ubiquitinated protein in the cell extracts was examined by Western blot using a ubiquitin specific antibody. T/C (%) was determined using the amount of chemical luminescence on a PVDF film due to an HRP-labeled secondary antibody as the ubiquitinated protein expression amount and the expression amount of the cell extract in the control well as 100.

[2] = test system: human breast cancer-derived MCF-7 cell; assay: Suppressive effect on estradiol (E2)-dependent cell growth (XTT); assay type: cell-based; settings: 10 nM E2, Day 10, XTT; compound A 0.037-3 μM, tamoxifen 0.062-5 μM (FIG. 4)
Description: (Method) Using human breast cancer-derived MCF-7 cell that expresses estrogen receptor and grows in response to estradiol (E2, 17β-Estradiol, Cat. #E 1024, Sigma Ltd.), the effect of compound A on the cell growth in the presence of E2 was examined. As the control compound, tamoxifen (Cancer Res., 62, 2474-2477, 2002) (Cat. #T 9262, Sigma Ltd.) known to suppress growth of human breast cancer-derived MCF-7 cell by E2 stimulation was used. MCF-7 cells were suspended in a phenol red non-addition DME-F12 mixed medium containing 5% fetal calf serum treated with activated carbon, and cultured at 2×10^4 cells/well in a 24 well plate. […]
The cell growth activity was measured on Day 10 by the dye method using XTT.
That is, after the completion of the culture, XTT was added to each well and, after color development for 4 hr, the reaction mixture was transferred to a 96 well plate, and the absorbance at 492 nm was measured.
The suppression rate was calculated from the following formula.
Suppression rate (%)={1−[(absorbance of compound addition well in the presence of E2)−(absorbance of control well without E2 addition)]÷[(absorbance of control well in the presence of E2)−(absorbance of control well without E2 addition)]×100

HSP70 [3] = assay: Induction of HSP70 in various human tumor-derived cells (Western blot); assay type: cell-based; settings: TE-8, NCI-H520, HPAC, DU145, KPL-4, MKN-45, HL-60 and DLD-1 cells, 10 μM, 9 hr, vs DMSO control (FIG. 2)
Description: (Method) As to the induction of HSP70 by compound A, induction in various human tumor cells was examined.
TE-8 cell, NCI-H520 cell, HPAC cell, DU145 cell, KPL-4 cell, MKN-45 cell, HL-60 cell and DLD-1 cell were each were cultured in a 12-well plate.
DMSO (0.1%) was added to a control well. After the addition, the cells were collected 9 hr later and cell extracts were prepared. Expression of HSP70 protein in the tumor cell extracts was examined by Western blot using an HSP70 specific antibody.

[4] = test system: client proteins EGFR, HER2, ERα, AR, AKT and CDK4 of HSP90 chaperone; assay: Suppressive action on HSP90 client protein expression in MCF-7 cells (Western blot); assay type: cell-based, human; settings: 10 μM, 24 hr, vs DMSO control (FIG. 3)
Description: After the addition of the compound, the cells were collected and divided in two 24 hr later. Cell extracts were prepared from half the cells, and cytoplasmic fraction and nuclear fraction were prepared from the remaining half. […] Expression of client in each tumor cell extract and nuclear fraction was examined by Western blot using an antibody specific to each client.

[5] = test system: human prostate cancer-derived DU 145 cells; assay: Cell growth suppression by combined hyperthermic treatment and compound (XTT); assay type: cell-based; settings: 0.37-10 μM, 43° C. 4 hr vs 37° C., then 24 hr culture, XTT (FIG. 5)
Description: (Method) Using human prostate cancer-derived DU 145 cells, the effect of compound A on the cell growth suppressive action during hyperthermic treatment was examined. DU 145 cells were cultured at 1×10^4 cells/well in two 96 well plates. The next day, compound A was added to each plate to 0.37, 1.1, 3.3 and 10 μM, one plate was incubated for 4 hr in a 5% CO2 incubator set to 43° C. (heat treatment), and the other plate was incubated in the same manner for 4 hr in a 5% CO2 incubator set to 37° C. After 4 hr, the wells were washed 3 times with saline, a growth medium was added and cultured in a 5% CO2 incubator at 37° C. for 24 hr.
The cell growth activity was measured by the dye method using XTT as in Example 4. That is, after the culture, XTT was added to each well and, 4 hr later, the absorbance at 492 nm was measured.
T/C (%) was determined from the following formula with the absorbance of the control well in the plate without the heat treatment as 100.
T/C (%)=[absorbance of heat-treated control well or compound-treated well÷absorbance of control well without heat treatment]×100

HSP70 [6] = assay: Time-dependent HSP70 induction in A-431 cells (Western blot); assay type: cell-based, human; settings: 10 μM, vs DMSO control (FIG. 1)
Description: as §1, with “6, 9, 12 and 24” for “9”

[7] = test system: human breast cancer-derived MCF-7 implanted in nude mouse; assay: Antitumor effect on human breast cancer-derived MCF-7 implanted in nude mouse; assay type: in vivo; settings: 100 mg/kg orally once a day for 2 weeks, vs solvent control, Dunnett's test p<0.05 (FIG. 6)
Description: (Method) Human breast cancer-derived MCF-7 cells were subcutaneously implanted in female nude mouse purchased from CLEA Japan, Inc. The effect of compound A on the growth was examined. A 17β-estradiol solution was added dropwise to a small piece of glass microfibre filter GF/B (Whatman, #1821 05) to give a pellet (500 μg/filter). The pellet was subcutaneously implanted in the neck of female Balb/c nude mouse, and MCF-7 cells were subcutaneously implanted in the right back at 5×10^6 cells/mouse. From 7 days after the implantation, compound A was orally administered at 30 mg/kg and 100 mg/kg to nude mice (5 per group) once a day for 2 weeks.
The 0.5% tragacanth solution used as a solvent was similarly administered to the control. The next day of the final administration, the nude mice were sacrificed under anesthesia, and the subcutaneous tumor was isolated and weighed. The mean tumor weight and standard error of each group were calculated, and statistically analyzed by the Dunnett's test and using the solvent administration group as a control.

C=CC(=O)Nc1cc2c(Nc3ccc(F)c(Cl)c3)ncnc2cc1C#CC(C)(C)N1CCN(CCOC)CC1 [B, N-([4-(3-Chloro-4-fluorophenyl)amino]-7-{3-[4-(2-methoxyethyl)-1-piperazinyl]-3-methyl-1-butynyl}-6-quinazolinyl)acrylamide]
HSP70 expression, Experiment 2 (T/C, %) (HSP70 [1]): 482%

C=CC(=O)Nc1cc2c(Nc3ccc(F)c(Cl)c3)ncnc2cc1C#CCN1CCN(C)CC1 [C, N-{4-[(3-Chloro-4-fluorophenyl)amino]-7-[3-(4-methyl-1-piperazinyl)-1-propynyl]-6-quinazolinyl}acrylamide]
HSP70 expression, Experiment 1 (T/C, %) (HSP70 [1]): 207%

C=CC(=O)Nc1cc2c(Nc3cccc(C#N)c3)ncnc2cc1C#CC(C)(C)N1CCN(C)CC1 [D, N-{4-[(3-Cyano-phenyl)amino]-7-[3-methyl-3-(4-methyl-1-piperazinyl)-1-butynyl]-6-quinazolinyl}acrylamide]
HSP70 expression, Experiment 2 (T/C, %) (HSP70 [1]): 446%

C=CC(=O)Nc1cc2c(Nc3ccc(F)c(Cl)c3)ncnc2cc1C#CC1(N2CCN(C)CC2)CCOCC1 [E, N-{4-[(3-Chloro-4-fluorophenyl)amino]-7-[4-(4-methyl-1-piperazinyl)-4-tetrahydropyranylethynyl]-6-quinazolinyl}acrylamide]
HSP70 expression, Experiment 1 (T/C, %) (HSP70 [1]): 172%

CCOc1cc2ncnc(Nc3ccc(F)c(Cl)c3)c2cc1C#CC(C)(C)N(C)C1CCN(C)CC1 [F, (3-Chloro-4-fluorophenyl)-(7-ethoxy-6-{3-methyl-3-[methyl-(1-methyl-4-piperidinyl)amino]-1-butynyl}-4-quinazolinyl)amine]
HSP70 expression, Experiment 1 (T/C, %) (HSP70 [1]): 141%

CC(C)C[C@H](NC(=O)[C@H](Cc1ccccc1)NC(=O)c1cnccn1)B(O)O [bortezomib, reference compound]
amount of ubiquitinated protein (ubiquitinated protein; 3 μM, 1, 3, 6 and 24 hr): remarkably appeared from 3 hr after the treatment

C=CC(=O)Nc1cc2c(Nc3ccc(F)c(Cl)c3)ncnc2cc1C#CC(C)(C)N1CCN(C)CC1 [compound A]
growth of MCF-7 cells by E2 stimulation [2]: suppresses the growth | HSP70 expression (HSP70 [3]): increased | amount of ubiquitinated protein (ubiquitinated protein; 1 μM, 1, 3, 6 and 24 hr): did not occur until after 24 hr | amount of ubiquitinated protein (ubiquitinated protein; 3 μM, 1, 3, 6 and 24 hr): increased from 6 hr after the treatment | amount of ubiquitinated protein (ubiquitinated protein; 10 μM, 1, 3, 6 and 24 hr): increased from 6 hr after the treatment | expression of HSP90 client proteins [4]: decreased expression | cell death due to heat shock [5]: cell death due to heat shock is enhanced | expression of HSP70 (HSP70 [6]; 6 hr to 12 hr after treatment): increased in a time-dependent manner | expression of HSP70 (HSP70 [6]; 24 hr after treatment): markedly decreased | tumor weight [7]: significantly decreased | HSP70 expression, Experiment 1 (T/C, %) (HSP70 [1]): 299% | HSP70 expression, Experiment 2 (T/C, %) (HSP70 [1]): 895%

COc1cc2ncnc(Nc3ccc(F)c(Cl)c3)c2cc1OCCCN1CCOCC1 [gefinitib, 4-(3′-Chloro-4′-fluoroanilino)-7-methoxy-6-(3-morpholinopropoxy)quinazoline, reference compound]
HSP70 expression (HSP70 [3]): did not show a clear increase

CC/C(=C(\c1ccccc1)c1ccc(OCCN(C)C)cc1)c1ccccc1 [tamoxifen, reference compound]
growth of MCF-7 cells by E2 stimulation [2]: suppresses the growth
